Experimental data as given in patent publication US8642012B2, “Methods of treatment using ammonia-scavenging drugs” (Hyperion Therapeutics, Inc., priority 2008, dated 2014).
Entries after “also recorded” stand apart in the source; their conditions may differ.

Legend:
[1] = HPN-100 in subjects with cirrhosis (Child-Pugh A, B, C) and healthy adults: plasma PK; format: in vivo, human
Method: (§1) To determine its pharmacokinetic (PK) and pharmacodynamic (PD) profile in patients with liver disease, clinical testing was conducted in which HPN-100 was administered orally as a single dose (100 mg/kg/day on day 1), and twice daily for 7 consecutive days (200 mg/kg/day on days 8 through 14, in two doses of 100 mg/kg per dose), to subjects with hepatic impairment with cirrhosis (Child-Pugh scores of A, B, or C) and to a gender and age-matched control group of healthy adults with normal hepatic function. On day 15, subjects received a single dose of HPN-100 (100 mg/kg). PK blood samples were taken pre-dose, at 15 and 30 minutes post-dose, and at 1, 1.5, 2, 3, 4, 6, 8, 12, and 24 hours post-dose on days 1, 8, and 15, and at 48 hours after dosing on days 1 and 15. On days 9-14, blood samples were taken pre-morning dose and at 2 hours post-morning dose. Urine was collected 0-4, 4-8, 8-12, and 12-24 hours post-dose on days 1, 8, and 15, and at 24-48 hours post-dose on days 1 and 15.

[2] = HPN-100 in subjects with cirrhosis and healthy adults: urinary PAGN excretion; format: in vivo, human; details: for Molar % of dose ammonia scavenged, Mean (SD): after dosing on day 15 (0-48 hours)
Method: as §1

[3] = Adult UCD patients switched from sodium PBA to equimolar HPN-100: plasma PK at steady state; format: in vivo, human; details: UCD patients; all blood samples
From the text: (§2) Subjects stayed on the 100% HPN-100 dose for one week and were then re-admitted to the study unit for repeated PK (Visit 11-1), ammonia and urine collections.

[4] = Adult UCD patients, sodium PBA vs HPN-100: urinary PAGN excretion; format: in vivo, human; details: equimolar rates (n=10)
From the text: as §2

venous ammonia = assay: Adult UCD patients, sodium PBA vs HPN-100: venous ammonia pharmacodynamics; format: in vivo, human
From the text: as §2

[5] = Adult UCD patients, sodium PBA vs HPN-100: safety and patient preference; format: in vivo, human; details: UCD patients (n=10)
From the text: as §2

[6] = ADME study of radio labeled sodium PBA or HPN-100 in cynomolgous monkeys; format: in vivo; details: 600 mg/kg single dose
From the text: These monkeys were chosen because, like humans (and unlike most other species), they metabolize PAA to PAGN and thus provide a useful model for testing prodrugs of PAA.

[7] = Overall findings across the clinical studies (conversion to urinary PAGN, tolerability); format: in vivo, human
From the text: These are followed by a biological explanation for the findings.

[8] = N 10 UCD subjects, seven days of dosing, steady state
[9] = Subject 1001, seven days of dosing, steady state
[10] = Subject 1002, seven days of dosing, steady state
[11] = Subject 1004, seven days of dosing, steady state
[12] = Subject 1006, seven days of dosing, steady state
[13] = Subject 2001, seven days of dosing, steady state
[14] = Subject 2003, seven days of dosing, steady state
[15] = Subject 3002, seven days of dosing, steady state
[16] = Subject 3004, seven days of dosing, steady state
[17] = Subject 5001, seven days of dosing, steady state
[18] = Subject 5002, seven days of dosing, steady state
[19] = UCD patients, equimolar rates (n=10)
[20] = UCD patients, not statistically significant

O=C(CCCc1ccccc1)OCC(COC(=O)CCCc1ccccc1)OC(=O)CCCc1ccccc1 [HPN-100, glyceryl tri-[4-phenylbutyrate]]
PK and PD in fed versus fasted state ([1]; after fasting (day 1) vs with a meal (day 8)): no PK or PD differences; also recorded: indistinguishable | Alternative metabolites PAG, PBG and PBGN in plasma ([1]; all plasma samples, all subject groups): below the limit of quantification | Effect of hepatic impairment on ammonia-scavenging ability ([2]; Child-Pugh groups vs healthy volunteers): no significant effect | Molar % of dose ammonia scavenged, Mean (SD) ([2]; Child-Pugh A (8)): 159.2 (60.9) Molar % | Molar % of dose ammonia scavenged, Mean (SD) ([2]; Child-Pugh B (8)): 116.3 (58.3) Molar % | Molar % of dose ammonia scavenged, Mean (SD) ([2]; Child-Pugh C (8)): 169.9 (130.1) Molar % | Molar % of dose ammonia scavenged, Mean (SD) ([2]; Healthy Adults (8)): 137.2 (43.9) Molar % | Intact HPN-100 in blood samples [3]: either not detectable or below the limits of quantitation | PAGN excretion [4]: Comparable | Venous ammonia Cmaxss, Mean (venous ammonia; [8]): 56.3 µmol/L | Venous ammonia Cmaxss, Median (venous ammonia; [8]): 60.0 µmol/L | Venous ammonia TN-AUC, Mean (venous ammonia; [8]): 26.1 µmol/L | Venous ammonia TN-AUC, Median (venous ammonia; [8]): 22.3 µmol/L | Venous ammonia Cmaxss (venous ammonia; [9]): 63.0 µmol/L | Venous ammonia TN-AUC (venous ammonia; [9]): 19.8 µmol/L | Venous ammonia Cmaxss (venous ammonia; [10]): 31.0 µmol/L | Venous ammonia TN-AUC (venous ammonia; [10]): 19.3 µmol/L | Venous ammonia Cmaxss (venous ammonia; [11]): 106 µmol/L | Venous ammonia TN-AUC (venous ammonia; [11]): 35.1 µmol/L | Venous ammonia Cmaxss (venous ammonia; [12]): 13.0 µmol/L | Venous ammonia TN-AUC (venous ammonia; [12]): 8.30 µmol/L | Venous ammonia Cmaxss (venous ammonia; [13]): 33.0 µmol/L | Venous ammonia TN-AUC (venous ammonia; [13]): 22.7 µmol/L | Venous ammonia Cmaxss (venous ammonia; [14]): 74.0 µmol/L | Venous ammonia TN-AUC (venous ammonia; [14]): 21.1 µmol/L | Venous ammonia Cmaxss (venous ammonia; [15]): 36.0 µmol/L | Venous ammonia TN-AUC (venous ammonia; [15]): 21.9 µmol/L | Venous ammonia Cmaxss (venous ammonia; [16]): 75.0 µmol/L | Venous ammonia TN-AUC (venous ammonia; [16]): 38.4 µmol/L | Venous ammonia Cmaxss (venous ammonia; [17]): 57.0 µmol/L | Venous ammonia TN-AUC (venous ammonia; [17]): 35.5 µmol/L | Venous ammonia Cmaxss (venous ammonia; [18]): 75.2 µmol/L | Venous ammonia TN-AUC (venous ammonia; [18]): 39.1 µmol/L | Mean percentage of normal ammonia values (venous ammonia; UCD patients): 83% | Peak venous ammonia concentration (venous ammonia; UCD patients): 56.3 µmol/L | Venous ammonia mean TN-AUC (venous ammonia; UCD patients): 26.1 µmol/L | Ammonia level reached in patients above about 40 μmol/L on sodium PBA (venous ammonia; UCD patients, equimolar dosages, FIG. 12): below 40 μmol/L | TN-AUC (NH3) (venous ammonia; UCD patients, equimolar dosages, plasma ammonia): 26.1 µM | NH3: Total AUC (venous ammonia; [19]): 26.1 ± 10.3 | NH3 exposure: DAY (hours 6-12) (venous ammonia; [19]): 32.9 | NH3 exposure: NIGHT (hours 12-24) (venous ammonia; [19]): 21.3 | NH3 Cmax (venous ammonia; UCD patients, equimolar rates (n=10), in µmol/L): 56.3 ± 27.9 | Peak venous ammonia, lowering versus sodium PBA (venous ammonia; [20]): ~29% | Venous ammonia TN-AUC, lowering versus sodium PBA (venous ammonia; [20]): ~31% | Adverse effects, number of subjects reporting [5]: 5 | Adverse effects, total number reported [5]: 15 | Intact HPN-100 in systemic circulation or in excretions [6]: essentially no HPN-100 | Indications of toxicity ([7]; at doses equimolar to the approved PBA dosage of 20 g/day): no indications of toxicity | Dietary protein whose waste nitrogen is eliminated per gram of drug per day ([7]; given 60-75% conversion rate): ~1.3 grams | Effect on creatinine levels ([7]; human, in vivo): little to no effect | Relationship between dose and PAGN output ([7]; up to doses of 17.4 mL): linear relationship
